8 compounds from ChEMBL document CHEMBL5036301, “Heteroaryl ether analogues of an antileishmanial 7-substituted 2-nitroimidazooxazine lead afford attenuated hERG risk: In vitro and in vivo appraisal” (Eur J Med Chem, 2021) can be followed below.

Converted amounts (≈) assume the structure as drawn.

For series [1], the system named is Leishmania donovani. The series is described as follows: Antileishmanial activity against Leishmania donovani amastigotes infected in mouse J774A.1 cells incubated for 72 hrs by luciferase assay. In kind it is functional, organism-based. As to conditions: J774.A1, 72 h.
Series [2] concerns Leishmania infantum. Briefly: Antileishmanial activity against Leishmania infantum MHOM/MA(BE)/67 amastigotes infected in macrophages assessed as reduction in parasite burden by giemsa staining based microscopic analysis. Type of series: functional, organism-based.
The subject of series [3] is Trypanosoma cruzi. The series is described as follows: Antitrypanosomal activity against Trypanosoma cruzi Tulahuen CL2 infected in human MRC-5 cells assessed as parasite growth. In kind it is functional, organism-based. As to conditions: Tulahuen CL2, MRC5.
For series [4], the system named is MRC5. Briefly: Cytotoxicity against human MRC5 cells assessed as cell viability after 72 hrs by fluorimetric analysis. In kind it is ADME, cell-based. As to conditions: MRC5, 72 h.
The subject of series [5] is Mycobacterium tuberculosis. Briefly: Antitubercular activity against Mycobacterium tuberculosis H37Rv assessed as reduction in microbial growth under aerobic condition by luminescence analysis. In kind it is functional.
Series [6] relates to Mycobacterium tuberculosis. Briefly: Antitubercular activity against Mycobacterium tuberculosis H37Rv assessed as reduction in microbial growth under anaerobic condition by luminescence analysis. Type of series: functional.
Series [7] can be described thus: Kinetic solubility of compound in water at pH7 by HPLC analysis. As to conditions: pH 7.
Series [8] addresses hERG (KCNH2) (Homo sapiens, UniProt Q12809). Briefly: Inhibition of human ERG expressed in HEK293 cells at 10 uM relative to control. In kind it is cell-based. As to conditions: HEK293 cells expressing human ERG.
The subject of series [9] is Leishmania donovani. Briefly: Antileishmanial activity against Leishmania donovani amastigotes infected in BALB/C mouse assessed as reduction in parasite burden in liver tissue at 50 mg/kg, po administered once per day for 5 days relative to control. Type of series: functional. As to conditions: 120 h, time 5 day.
A short description of series [10]: Initial plasma concentration in mouse at 1 mg/kg, iv measured upto 24 hrs LC-MS/MS analysis.
Series [11] in a line: Clearance in mouse at 1 mg/kg, iv measured upto 24 hrs LC-MS/MS analysis. As to conditions: in vivo.
The nature of series [12]: Volume of distribution at steady state in mouse at 1 mg/kg, iv measured upto 24 hrs LC-MS/MS analysis. As to conditions: in vivo.
Series [13] is described as follows: Half life in mouse at 1 mg/kg, iv measured upto 24 hrs LC-MS/MS analysis. As to conditions: in vivo.
Series [14] is described as follows: AUClast in mouse at 1 mg/kg, iv measured upto 24 hrs LC-MS/MS analysis. As to conditions: in vivo.
The nature of series [15]: AUClast in mouse at 25 mg/kg, po measured upto 24 hrs LC-MS/MS analysis. As to conditions: in vivo.
Series [16] is described as follows: in vivo. As to conditions: mouse, po, 25 mg/kg.
Series [17] in a line: in vivo. As to conditions: mouse, po, 25 mg/kg. This is another data set of the same source.
A short description of series [18]: in vivo. As to conditions: mouse, po, 25 mg/kg. The source holds these as a separate data set.
Series [19] in a line: Kinetic solubility of compound in 0.1 M Hcl at pH1 by HPLC analysis. As to conditions: pH 1, read-out: Kinetic_solubility. In kind it is physicochemical.
Series [20] is described as follows: Stability of compound in human liver microsomes assessed as percentage of parent compound remaining at 1 uM measured after 1 hr.
A short description of series [21]: Stability of compound in CD-1 mouse liver microsomes assessed as percentage of parent compound remaining at 1 uM measured after 1 hr. On the technique in general: Liver microsomes are vesicles of endoplasmic reticulum, rich in cytochrome P450 enzymes.
A short description of series [22]: Stability of compound in hamster liver microsomes assessed as percentage of parent compound remaining at 1 uM measured after 1 hr. As to conditions: chinese hamster.
A short description of series [23]: Selectivity index, ratio IC50 for cytotoxicity against human MRC5 cells to IC50 for antileishmanial activity against Leishmania infantum MHOM/MA(BE)/67 amastigotes infected in macrophages.

Chain of hERG (KCNH2) (Q12809 whole entry): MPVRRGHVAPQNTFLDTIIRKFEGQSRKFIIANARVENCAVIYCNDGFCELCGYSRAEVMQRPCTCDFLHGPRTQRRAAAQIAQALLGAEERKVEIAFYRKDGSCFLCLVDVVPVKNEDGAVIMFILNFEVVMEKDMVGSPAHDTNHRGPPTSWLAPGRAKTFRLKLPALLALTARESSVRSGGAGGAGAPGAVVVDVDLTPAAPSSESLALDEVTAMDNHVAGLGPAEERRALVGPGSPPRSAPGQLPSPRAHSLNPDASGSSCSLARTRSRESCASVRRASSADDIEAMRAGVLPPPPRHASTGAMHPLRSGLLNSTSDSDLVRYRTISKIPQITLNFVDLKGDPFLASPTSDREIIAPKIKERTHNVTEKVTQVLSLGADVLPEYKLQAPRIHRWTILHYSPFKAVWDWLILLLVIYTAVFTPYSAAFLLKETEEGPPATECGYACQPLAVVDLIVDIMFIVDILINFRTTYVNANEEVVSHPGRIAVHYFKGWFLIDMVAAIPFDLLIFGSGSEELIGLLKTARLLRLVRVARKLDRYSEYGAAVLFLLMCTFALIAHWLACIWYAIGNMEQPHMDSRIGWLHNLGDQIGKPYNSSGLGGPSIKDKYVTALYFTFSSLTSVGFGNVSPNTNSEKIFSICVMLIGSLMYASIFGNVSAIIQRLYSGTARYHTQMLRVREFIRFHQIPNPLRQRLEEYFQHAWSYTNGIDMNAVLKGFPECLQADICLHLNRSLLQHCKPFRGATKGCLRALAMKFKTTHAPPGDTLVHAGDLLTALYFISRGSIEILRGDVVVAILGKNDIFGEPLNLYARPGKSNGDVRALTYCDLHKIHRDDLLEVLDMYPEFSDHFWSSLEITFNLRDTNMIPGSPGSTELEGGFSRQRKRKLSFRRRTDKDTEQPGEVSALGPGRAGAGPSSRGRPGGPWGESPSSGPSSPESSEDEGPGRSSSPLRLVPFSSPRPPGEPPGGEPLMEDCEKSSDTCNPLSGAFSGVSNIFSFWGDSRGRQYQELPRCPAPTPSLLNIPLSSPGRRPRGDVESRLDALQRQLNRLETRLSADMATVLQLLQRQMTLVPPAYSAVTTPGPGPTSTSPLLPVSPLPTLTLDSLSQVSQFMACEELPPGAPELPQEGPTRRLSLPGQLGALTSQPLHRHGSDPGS

For `CC1(COc2ccc(C(F)(F)F)nc2)CCn2cc([N+](=O)[O-])nc2O1` (centres undefined), the IC50 is 0.09 µM in [1], 1.9 µM in [2], 0.78 µM in series [3] and above 64 µM in series [4]. In addition, the minimum inhibitory concentration (MIC) in series [5] was 66 µM; in series [6] it was 33 µM. In series [7], this compound yielded a solubility kinetic of 7.3 µg/mL (≈ 20.4 µM). The same compound had an inhibition at 10 µM in [8] of 17%. The inhibition in vivo at 50 mg/kg in series [9] was 42%. In [10], this compound yielded a C0 at 24 h of 1600 ng/mL. In series [11], the clearance at 24 h came out at 4.1 mL/min/kg. In series [12], the Vd at 24 h was 0.46 L/kg. Further, the half-life at 24 h in [13] is 1.5 h. For the same compound, the AUC(0-t) at 24 h amounted to 4000 ng·h/mL in [14] and 41800 ng·h/mL in series [15]. In series [16], the Cmax at 24 h worked out at 11000 ng/mL. In [17], the Tmax at 24 h was found to be 1 h. In addition, the bioavailability at 24 h in [18] amounted to 84%.

On to `C[C@]1(COc2ccc(C(F)(F)F)nc2)CCn2cc([N+](=O)[O-])nc2O1`, for which the half-inhibitory concentration (IC50) in series [1] was 0.44 µM; in [2], 1.3 µM; in series [3], 0.9 µM; in series [4], above 64 µM. Also, the solubility kinetic in series [7] is 12 µg/mL (≈ 33.5 µM). In addition, the inhibition in vivo at 50 mg/kg in series [9] came to 72%. Moreover, the C0 at 24 h in [10] was 1100 ng/mL. The compound also registered a clearance at 24 h in series [11] of 6.6 mL/min/kg. In addition, the volume of distribution (Vd) at 24 h in [12] was found to be 0.91 L/kg. The same compound showed a half-life at 24 h in series [13] of 1.3 h. Besides, the AUC(0-t) at 24 h in [14] is 2520 ng·h/mL; in series [15] it was 37200 ng·h/mL. Besides, the Cmax at 24 h in [16] turned out to be 7300 ng/mL. Also, in series [17], the Tmax at 24 h is 2 h. Besides, in [18], the bioavailability at 24 h turned out to be 59%.

For `O=[N+]([O-])c1cn2c(n1)OC(COc1ccc(C(F)(F)F)cn1)CC2` (centres undefined), the IC50 in series [1] was 0.08 µM; in series [2], above 64 µM; in [3], 1 µM; in [4], above 64 µM. Moreover, the MIC was determined as 2.6 µM in series [5] and 20 µM in [6]. Further, the solubility kinetic in series [7] was 37 µg/mL (≈ 107 µM); in series [19], 32 µg/mL (≈ 93 µM). Moreover, at 10 µM the inhibition in series [8] was 4%. Besides, the inhibition in vivo at 50 mg/kg in [9] came to 46%.

Regarding `C[C@@]1(COc2ccc(C(F)(F)F)nc2)CCn2cc([N+](=O)[O-])nc2O1`, the half-inhibitory concentration (IC50) was 0.74 µM in series [1], 2.3 µM in [2], 1.8 µM in series [3] and above 64 µM in [4]. For the same compound, the MIC in series [5] and in series [6] was above 128 µM throughout. This compound registered a solubility kinetic in [7] of 15 µg/mL (≈ 41.9 µM). In addition, the inhibition in vivo at 50 mg/kg in [9] came to 46%. Besides, the C0 at 24 h in series [10] amounted to 1900 ng/mL. This compound displayed a clearance at 24 h in series [11] of 6 mL/min/kg. This compound showed a Vd at 24 h in series [12] of 0.75 L/kg. The compound also had a half-life at 24 h in series [13] of 1.2 h. Also, the AUC(0-t) at 24 h is 2760 ng·h/mL in series [14] and 37200 ng·h/mL in [15]. The compound further came in with a Cmax at 24 h in series [16] of 8000 ng/mL. In series [17], the Tmax at 24 h amounted to 2 h. Also, the bioavailability at 24 h in [18] came to 54%.

As to `CC1(COc2ncc(C(F)(F)F)cn2)CCn2cc([N+](=O)[O-])nc2O1` (centres undefined), the figures for the IC50 in [2], in series [3] and in series [4] were above 64 µM, 3.1 µM and above 64 µM, respectively. The compound further gave a solubility kinetic in series [7] of 9.3 µg/mL (≈ 25.9 µM). The fraction remaining at 1 h, 1 µM in series [20] stood at 88%; in series [21], 86%; in series [22] it was 40%. Further, the inhibition in vivo at 50 mg/kg in [9] worked out at 35%.

As for `CC1(COc2ncc(C(F)(F)F)cc2F)CCn2cc([N+](=O)[O-])nc2O1` (centres undefined), the IC50 was 0.47 µM in series [2], 0.73 µM in series [3] and above 64 µM in series [4]. Further, in series [23], the selectivity ratio is above 136. In series [7], this compound gave a solubility kinetic of 13 µg/mL (≈ 34.6 µM). Moreover, the fraction remaining at 1 h, 1 µM stood at 64% in [20], 44% in series [21] and 0.4% in [22]. In series [9], the inhibition in vivo at 50 mg/kg worked out at 56%.

Turning to `O=[N+]([O-])c1cn2c(n1)OC(COc1ccc(C(F)(F)F)nc1)CC2` (centres undefined), the IC50 was 0.11 µM in [1], above 64 µM in series [2], 1.1 µM in series [3] and above 64 µM in series [4]. In [7], this compound had a solubility kinetic of 29 µg/mL (≈ 84.2 µM). Testing at 10 µM in series [8] gave an inhibition of 4%. Further, in [10], the C0 at 24 h came out at 2300 ng/mL. In [11], this compound came in with a clearance at 24 h of 5.4 mL/min/kg. This compound showed a Vd at 24 h in series [12] of 0.47 L/kg. Further, the half-life at 24 h in [13] is 1.1 h. The figures for the area under the curve AUC(0-t) at 24 h in [14] and in series [15] were 3100 ng·h/mL and 15100 ng·h/mL, respectively. The compound also displayed a Cmax at 24 h in series [16] of 5800 ng/mL. Moreover, the Tmax at 24 h in series [17] is 0.25 h. The compound further gave a bioavailability at 24 h in [18] of 39%.

Take `CC1(COc2ccccc2)CCn2cc([N+](=O)[O-])nc2O1` (centres undefined): the IC50 in [1] is 0.3 µM; in series [2], 0.52 µM; in [3], 0.59 µM; in series [4] it was above 64 µM. Moreover, in series [23], the selectivity ratio was above 123. Moreover, the MIC in series [5] was determined as 1.3 µM; in [6] it was 8.1 µM.

By IC50 is commonly meant the concentration needed to halve the response being measured. Usually MIC stands for the least concentration at which growth counts as inhibited. As a reminder, the inhibition is how much of the control response was suppressed. Lower therefore signals a weak effect. The inhibition in vivo is the relative decrease from the control value, in per cent. The clearance is a measure of how efficiently the substance is removed, as volume per time. Read a low clearance as a low capacity for elimination. For orientation: Vd means the apparent volume that relates the amount in the body to the concentration in plasma or blood. Usually half-life stands for the time in which the quantity being followed falls by half. Lower therefore signals rapid decline. As a reminder, the AUC(0-t) is exposure summed from dosing to a finite time, without extrapolation to infinity. Higher therefore signals more exposure. Usually Cmax stands for the maximum level reached in the sampled fluid or tissue. By Tmax is commonly meant the time from dosing to the highest level. One may read the bioavailability as the share of a dose that reaches the circulation, judged against a reference dose that is usually intravenous. A low value points to poor availability. One may read the share remaining as the share of the starting amount still present when the sample was taken.
